Consider 22 compounds from patent US20240270748A1 (Merck Patent GmbH, priority 2021, published 2024).

One assay concerns YAP-TEAD interaction. The assay is described as follows: SK-HEP-1 reporter assay (8xTEAD responsive elements driving NanoLuc luciferase). The class given is cell-based. As to conditions: Homo sapiens, SK-HEP1, SK-HEP-1 reporter assay. Summed up:
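SK-HEP-1 cells stably carrying 8×TEAD-driven NanoLuc treated in duplicate, 10-point dose from 30 μM final, 0.3% DMSO, 24 h at 37° C. Luminescence after NanoGlo lysis/substrate addition; IC50 calculated from dose response.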

A further assay concerns NCI-H226 cells. Nature of the assay: Viability assay in NCI-H226 (Yap-dependent) cells, CyQuant. As to conditions: Homo sapiens, NCI-H226, 96 h. The class given is cell-based, human. Put shortly: (§1)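 Seeded cells were dosed 24 h later in duplicate (10-point, 1:3 dilutions, top 30 μM final, 0.3% DMSO) and incubated 96 h at 37 °C. Viability was read with CyQUANT DNA dye after 1 h, fluorescence bottom read. NCI-H226 in RPMI 1640 medium; SW620 YAP/TAZ CRISPR knockout in DMEM/F-12 medium.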

The test system of the next assay is SW620 Yap KO cells. The assay is described as follows: Viability assay in SW620 Yap KO (Yap independent) cells, CyQuant. The class given is cell-based. To be noted: Homo sapiens, SW-620, 96 h. Put shortly: as §1
Where [1] appears, read: n.d. = value not detectable below threshold given in parentheses, ND = not determinable within the entire range.
Where [2] appears, read: n.d. = value not detectable below threshold given in parentheses.

`Cn1cc2c3cc(C(=O)N=S(C)(C)=O)ccc3n(-c3ccc(C(F)(F)F)cn3)c2n1` [Example C149, N-[dimethyl(oxo)-λ^6-sulfanylidene]-2-methyl-8-[5-(trifluoromethyl)pyridin-2-yl]-2H,8H-pyrazolo[3,4-b]indole-5-carboxamide]: the IC50 was greater than 320 nM with YAP-TEAD interaction (setting [1]), 1 to 100 nM in the assay with NCI-H226 cells (class symbols) and greater than 30 µM in the assay with SW620 Yap KO cells (setting [1]).

With `Cn1cc2c3cc(C(=O)N[C@@H](CO)c4ccccn4)ccc3n(-c3ccc(C(F)(F)F)cn3)c2n1` [Example C150, N-[(1R)-2-hydroxy-1-(pyridin-2-yl)ethyl]-2-methyl-8-[5-(trifluoromethyl)pyridin-2-yl]-2H,8H-pyrazolo[3,4-b]indole-5-carboxamide], the results for the IC50 in the assay on YAP-TEAD interaction (class symbols), in the assay with NCI-H226 cells (class symbols) and in the assay with SW620 Yap KO cells (class symbols) were 10 to 100 nM, 1 to 100 nM and 10 to 30 µM, respectively.

Turning to `C[C@@H](CO)C(=O)Nc1ccc2c(c1)c1cn(C)nc1n2-c1ccc(C(F)(F)F)cc1` [Example C153, (2S)-3-hydroxy-2-methyl-N-{2-methyl-8-[4-(trifluoromethyl)phenyl]-2H,8H-pyrazolo[3,4-b]indol-5-yl}propanamide], the IC50 in the assay with YAP-TEAD interaction (class symbols) was 10 to 100 nM; with NCI-H226 cells (class symbols), 1 to 100 nM; in the assay on SW620 Yap KO cells (setting [1]) it was greater than 30 µM.

Regarding `CON(C)C(=O)c1ccc2c(c1)c1cn(C)nc1n2-c1ccc(C(F)(F)F)cc1` [Example C156, N-methoxy-N,2-dimethyl-8-[4-(trifluoromethyl)phenyl]-2H,8H-pyrazolo[3,4-b]indole-5-carboxamide], the IC50 in the assay with YAP-TEAD interaction (class symbols) was 10 to 100 nM; in the assay with NCI-H226 cells (class symbols), 1 to 100 nM; with SW620 Yap KO cells (setting [1]) it was greater than 30 µM.

As to `Cn1nc2c3cc(C(=O)NC[C@H](O)C(F)(F)F)ccc3n(-c3ccc(C(F)(F)F)cc3)c2n1` [Example C159, 2-methyl-N-[(2S)-3,3,3-trifluoro-2-hydroxypropyl]-4-[4-(trifluoromethyl)phenyl]-2H,4H-[1,2,3]triazolo[4,5-b]indole-7-carboxamide], the figures for the IC50 in the assay with YAP-TEAD interaction (class symbols), with NCI-H226 cells (class symbols) and in the assay with SW620 Yap KO cells (setting [1]) were 10 to 100 nM, 1 to 100 nM and greater than 3 µM, respectively.

Consider `Cn1nc2c3cc(C(=O)NC[C@@H](O)C(F)(F)F)ccc3n(-c3ccc(C(F)(F)F)cc3)c2n1` [Example C160, 2-methyl-N-[(2R)-3,3,3-trifluoro-2-hydroxypropyl]-4-[4-(trifluoromethyl)phenyl]-2H,4H-[1,2,3]triazolo[4,5-b]indole-7-carboxamide], for which the 50% inhibitory concentration (IC50) in the assay with YAP-TEAD interaction (class symbols) is 10 to 100 nM; with NCI-H226 cells (class symbols), 1 to 100 nM; in the assay on SW620 Yap KO cells (setting [1]) it was greater than 30 µM.

On to `Cn1cc2c3cc(C(=O)O)ccc3n(-c3ccc(C(F)(F)F)c(F)c3)c2n1` [Example C164, 8-[3-fluoro-4-(trifluoromethyl)phenyl]-2-methyl-2H,8H-pyrazolo[3,4-b]indole-5-carboxylic acid], for which the figures for the IC50 in the assay with YAP-TEAD interaction (class symbols), in the assay on NCI-H226 cells (class symbols) and in the assay with SW620 Yap KO cells (setting [2]) were 10 to 100 nM, 1 to 100 nM and greater than 30 µM, respectively.

For the compound `CNC(=O)c1ccc2c(c1)c1cn(C)nc1n2-c1ccc(C(F)(F)F)c(F)c1` [Example C166, 8-[3-fluoro-4-(trifluoromethyl)phenyl]-N,2-dimethyl-2H,8H-pyrazolo[3,4-b]indole-5-carboxamide], the results for the IC50 in the assay on YAP-TEAD interaction (class symbols), in the assay on NCI-H226 cells (class symbols) and in the assay on SW620 Yap KO cells (setting [2]) were 10 to 100 nM, 1 to 100 nM and greater than 3.2 µM, respectively.

As to `C[C@H](CO)NC(=O)c1ccc2c(c1)c1cn(C)nc1n2-c1ccc(C(F)(F)F)c(F)c1` [Example C167, 8-[3-fluoro-4-(trifluoromethyl)phenyl]-N-[(2R)-1-hydroxypropan-2-yl]-2-methyl-2H,8H-pyrazolo[3,4-b]indole-5-carboxamide], the IC50 in the assay with YAP-TEAD interaction (class symbols) is 10 to 100 nM; in the assay on NCI-H226 cells (class symbols), 1 to 100 nM; in the assay with SW620 Yap KO cells (setting [2]), greater than 30 µM.

For `Cn1cc2c3cc(C(=O)N=S(C)(C)=O)ccc3n(-c3ccc(C(F)(F)F)c(F)c3)c2n1` [Example C168, N-[dimethyl(oxo)-lambda6-sulfanylidene]-8-[3-fluoro-4-(trifluoromethyl)phenyl]-2-methyl-2H,8H-pyrazolo[3,4-b]indole-5-carboxamide], the values for the IC50 in the assay on YAP-TEAD interaction (class symbols), in the assay on NCI-H226 cells (class symbols) and in the assay on SW620 Yap KO cells (setting [2]) were 10 to 100 nM, 1 to 100 nM and greater than 3.2 µM, respectively.

Regarding `Cn1cc2c3cc(C(=O)N[C@@H](CO)c4ccccn4)ccc3n(-c3ccc(C(F)(F)F)c(F)c3)c2n1` [Example C169, 8-[3-fluoro-4-(trifluoromethyl)phenyl]-N-[(1R)-2-hydroxy-1-(pyridin-2-yl)ethyl]-2-methyl-2H,8H-pyrazolo[3,4-b]indole-5-carboxamide], the IC50 was 10 to 100 nM in the assay with YAP-TEAD interaction (class symbols), 1 to 100 nM in the assay on NCI-H226 cells (class symbols) and greater than 3.2 µM in the assay with SW620 Yap KO cells (setting [2]).

`Cn1cnc2c1c1cc(C=O)ccc1n2-c1ccc(C(F)(F)F)cc1` [Example C174, 1-methyl-4-[4-(trifluoromethyl)phenyl]-1H,4H-imidazo[4,5-b]indole-7-carbaldehyde]: the IC50 with YAP-TEAD interaction (class symbols) is 10 to 100 nM; in the assay with NCI-H226 cells (class symbols), 1 to 100 nM; in the assay on SW620 Yap KO cells (setting [2]), greater than 30 µM.

On to `C[C@@H](NC(=O)c1ccc2c(c1)c1nn(C)nc1n2-c1ccc(C(F)(F)F)cc1)c1ccccn1` [Example C176, 2-methyl-N-[(1R)-1-(pyridin-2-yl)ethyl]-4-[4-(trifluoromethyl)phenyl]-2H,4H-[1,2,3]triazolo[4,5-b]indole-7-carboxamide], for which the IC50 with YAP-TEAD interaction (class symbols) is 10 to 100 nM; in the assay on NCI-H226 cells (class symbols), 100 to 1000 nM; in the assay on SW620 Yap KO cells (setting [2]) it was greater than 30 µM.

As for `C[C@@H](NC(=O)c1ccc2c(c1)c1nn(C)nc1n2-c1ccc(C(F)(F)F)cc1)c1ccncc1` [Example C180, 2-methyl-N-[(1R)-1-(pyridin-4-yl)ethyl]-4-[4-(trifluoromethyl)phenyl]-2H,4H-[1,2,3]triazolo[4,5-b]indole-7-carboxamide], the IC50 was 10 to 100 nM in the assay with YAP-TEAD interaction (class symbols), 1 to 100 nM in the assay with NCI-H226 cells (class symbols) and greater than 30 µM in the assay with SW620 Yap KO cells (setting [2]).

As for `C[C@@H](NC(=O)c1ccc2c(c1)c1nn(C)nc1n2-c1ccc(C(F)(F)F)cc1)c1cccc(N)n1` [Example C181, N-[(1R)-1-(6-aminopyridin-2-yl)ethyl]-2-methyl-4-[4-(trifluoromethyl)phenyl]-2H,4H-[1,2,3]triazolo[4,5-b]indole-7-carboxamide], the figures for the IC50 with YAP-TEAD interaction (class symbols), in the assay with NCI-H226 cells (class symbols) and in the assay with SW620 Yap KO cells (setting [2]) were 10 to 100 nM, 1 to 100 nM and greater than 3 µM, respectively.

For `Cn1cc2c3cc(CO)ccc3n(-c3ccc(C(F)(F)F)cc3)c2n1` [Example C182, {2-methyl-8-[4-(trifluoromethyl)phenyl]-2H,8H-pyrazolo[3,4-b]indol-5-yl}methanol], the IC50 in the assay on YAP-TEAD interaction (class symbols) was 10 to 100 nM; with NCI-H226 cells (class symbols) it was 100 to 1000 nM; in the assay with SW620 Yap KO cells (setting [2]), greater than 30 µM.

For the compound `C[C@H](NC(=O)c1ccc2c(c1)c1nn(C)nc1n2-c1ccc(C(F)(F)F)cc1)c1cccc(N)n1` [Example C183, N-[(1S)-1-(6-aminopyridin-2-yl)ethyl]-2-methyl-4-[4-(trifluoromethyl)phenyl]-2H,4H-[1,2,3]triazolo[4,5-b]indole-7-carboxamide], the 50% inhibitory concentration (IC50) in the assay on YAP-TEAD interaction (class symbols) is 100 to 10000 nM; with NCI-H226 cells (class symbols), 1 to 100 nM; with SW620 Yap KO cells (setting [2]), greater than 3 µM.

`C[C@H](NC(=O)c1ccc2c(c1)c1nn(C)nc1n2-c1ccc(C(F)(F)F)cc1)c1ccccn1` [Example C184, 2-methyl-N-[(1S)-1-(pyridin-2-yl)ethyl]-4-[4-(trifluoromethyl)phenyl]-2H,4H-[1,2,3]triazolo[4,5-b]indole-7-carboxamide]: the IC50 in the assay on YAP-TEAD interaction (class symbols) is 10 to 100 nM; in the assay on NCI-H226 cells (class symbols), 1 to 100 nM; with SW620 Yap KO cells (setting [2]), greater than 30 µM.

On to `C[C@H](NC(=O)c1ccc2c(c1)c1nn(C)nc1n2-c1ccc(C(F)(F)F)cc1)c1ccncc1` [Example C185, 2-methyl-N-[(1S)-1-(pyridin-4-yl)ethyl]-4-[4-(trifluoromethyl)phenyl]-2H,4H-[1,2,3]triazolo[4,5-b]indole-7-carboxamide], for which the IC50 with YAP-TEAD interaction (class symbols) was 10 to 100 nM; with NCI-H226 cells (class symbols), 1 to 100 nM; in the assay on SW620 Yap KO cells (setting [2]), greater than 3 µM.

Turning to `[2H]C1([2H])C(n2c3ccc(C(=O)O)cc3c3cn(C)nc32)C([2H])([2H])C([2H])([2H])C([2H])([2H])C1([2H])[2H]` [Example C193, 8-[(2,2,3,3,4,4,5,5,6,6-^2H10)cyclohexyl]-2-methyl-2H,8H-pyrazolo[3,4-b]indole-5-carboxylic acid], the IC50 was 100 to 10000 nM in the assay with YAP-TEAD interaction (class symbols), greater than 30000 nM in the assay with NCI-H226 cells (setting [2]) and greater than 30 µM in the assay with SW620 Yap KO cells (setting [2]).

`[2H]C1([2H])C(n2c3ccc(C(=O)NC)cc3c3cn(C)nc32)C([2H])([2H])C([2H])([2H])C([2H])([2H])C1([2H])[2H]` [Example C194, 8-[(2,2,3,3,4,4,5,5,6,6-^2H10)cyclohexyl]-N,2-dimethyl-2H,8H-pyrazolo[3,4-b]indole-5-carboxamide]: the figures for the IC50 with YAP-TEAD interaction (class symbols), in the assay on NCI-H226 cells (class symbols) and in the assay on SW620 Yap KO cells (setting [2]) were 100 to 10000 nM, 1000 to 10000 nM and greater than 30 µM, respectively.

Take `[2H]C1([2H])C(n2c3ccc(C(=O)N[C@@H](CO)c4ccccn4)cc3c3cn(C)nc32)C([2H])([2H])C([2H])([2H])C([2H])([2H])C1([2H])[2H]` [Example C196, 8-[(2,2,3,3,4,4,5,5,6,6-^2H10)cyclohexyl]-N-[(1R)-2-hydroxy-1-(pyridin-2-yl)ethyl]-2-methyl-2H,8H-pyrazolo[3,4-b]indole-5-carboxamide]: the IC50 was 100 to 10000 nM with YAP-TEAD interaction (class symbols), 100 to 1000 nM in the assay with NCI-H226 cells (class symbols) and greater than 30 µM in the assay with SW620 Yap KO cells (setting [2]).
